Earlier results on one substance are cited in patent publication US6713950B2, “Low volatility slurry for emission mix powder” (General Electric Company, priority 2001, dated 2004).

This data set deals with rats.

For polyethylene glycol 200 [PEG 200], the “oral LD50” value is 28000 mg/kg.
